Values quoted from earlier work as cited in article PMC12866175 (European journal of nuclear medicine and molecular imaging, 2021).

Legend:
[1] = test system: NETs; settings: cited from earlier work
[2] = test system: tumor; settings: human, in vivo; cited from earlier work

Substance: [^177Lu]Lu-DOTA-TATE
- patients achieving stable disease [1]: 26–55%
- patients treatment refractory [1]: 18–32%
- time after starting treatment within which half progress [1]: 2 to 3 years
- tumor residence time compared with [^177Lu]Lu-DOTATOC [2]: greater tumor residence time
